The text below walks through data of patent US20250368648A1, “MULTI-CYCLIC IRAK AND FLT3 INHIBITING COMPOUNDS AND USES THEREOF” (CHILDREN'S HOSPITAL MEDICAL CENTER, priority 2022, published 2025).

Holding throughout (conditions): no ATP
One assay addresses T1, FLT3 K663Q (Homo sapiens, UniProt P36888, K663Q).
T1 construct: purchased DiscoverX (KINOMEscan); host or cells: E. coli (T7 phage) or HEK-293
T1 sequence (P36888 27-993 K663Q): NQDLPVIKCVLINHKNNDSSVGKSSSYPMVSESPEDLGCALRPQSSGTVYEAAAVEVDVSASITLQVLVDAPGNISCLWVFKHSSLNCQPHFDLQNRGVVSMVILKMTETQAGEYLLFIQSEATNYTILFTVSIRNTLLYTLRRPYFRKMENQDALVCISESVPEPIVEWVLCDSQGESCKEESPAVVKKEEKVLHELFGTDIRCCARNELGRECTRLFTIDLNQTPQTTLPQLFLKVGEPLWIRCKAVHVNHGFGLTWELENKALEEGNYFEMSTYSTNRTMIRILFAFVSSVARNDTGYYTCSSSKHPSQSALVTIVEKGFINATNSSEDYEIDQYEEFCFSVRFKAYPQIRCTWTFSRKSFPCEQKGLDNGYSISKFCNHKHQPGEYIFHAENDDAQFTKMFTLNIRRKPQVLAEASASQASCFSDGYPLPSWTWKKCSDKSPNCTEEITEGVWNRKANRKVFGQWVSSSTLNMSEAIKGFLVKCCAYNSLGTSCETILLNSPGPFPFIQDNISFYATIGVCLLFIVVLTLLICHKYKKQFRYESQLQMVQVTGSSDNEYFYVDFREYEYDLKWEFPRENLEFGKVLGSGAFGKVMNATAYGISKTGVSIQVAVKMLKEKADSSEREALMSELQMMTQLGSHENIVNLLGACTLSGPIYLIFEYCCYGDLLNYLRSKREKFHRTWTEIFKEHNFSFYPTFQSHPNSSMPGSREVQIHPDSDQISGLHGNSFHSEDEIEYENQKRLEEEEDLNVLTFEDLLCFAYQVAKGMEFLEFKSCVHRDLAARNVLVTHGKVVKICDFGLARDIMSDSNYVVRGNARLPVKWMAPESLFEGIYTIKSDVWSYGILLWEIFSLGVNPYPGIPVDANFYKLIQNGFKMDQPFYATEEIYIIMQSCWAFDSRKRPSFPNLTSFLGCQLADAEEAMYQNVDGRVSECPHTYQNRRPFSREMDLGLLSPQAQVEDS
Kind of assay: DiscoverX KINOMEscan competition binding, FLT3 K663Q. The source says:
(§1) Kinase binding data were obtained for various exemplary compounds prepared according to Examples 2-15 using the DiscoverX KINOMEscan® active site-directed competition binding site-directed assay protocol described below. […] As a result, the data report thermodynamic interaction affinities (Kd values), rather than IC50 values that are dependent on ATP concentrations. The assay uses a DNA-tagged version of the protein kinase, and an immobilized ligand bound to a solid support. Compounds that directly or indirectly prevent kinase binding to the immobilized ligand reduce the amount of kinase captured on the solid support, which is detected using an ultra-sensitive qPCR method. Affinity constants reported from the assay have been reported to be independent of the immobilized ligand used that is coupled to the solid support (See supplemental information in Fabian, M. A. et. al., (2005) Nat. […] Wodicka, L. […] Biol. 17, 1241-1249.) Kinase-tagged T7 phage strains were prepared in an E. coli host derived from the BL21 strain. E. coli were grown to log-phase and infected with T7 phage and incubated with shaking at 32° C. until lysis. […] Kds were determined using an 11-point 3-fold compound dilution series with three DMSO control points. […] The kinase concentration in the eluates was measured by qPCR. Binding constants (Kds) were calculated with a standard dose-response curve using the Hill equation. […]

A further assay deals with T2, IRAK1 (Homo sapiens, UniProt P51617).
T2 construct: purchased RBC (Reaction Biology) HotSpot assay
T2 sequence (P51617 whole entry): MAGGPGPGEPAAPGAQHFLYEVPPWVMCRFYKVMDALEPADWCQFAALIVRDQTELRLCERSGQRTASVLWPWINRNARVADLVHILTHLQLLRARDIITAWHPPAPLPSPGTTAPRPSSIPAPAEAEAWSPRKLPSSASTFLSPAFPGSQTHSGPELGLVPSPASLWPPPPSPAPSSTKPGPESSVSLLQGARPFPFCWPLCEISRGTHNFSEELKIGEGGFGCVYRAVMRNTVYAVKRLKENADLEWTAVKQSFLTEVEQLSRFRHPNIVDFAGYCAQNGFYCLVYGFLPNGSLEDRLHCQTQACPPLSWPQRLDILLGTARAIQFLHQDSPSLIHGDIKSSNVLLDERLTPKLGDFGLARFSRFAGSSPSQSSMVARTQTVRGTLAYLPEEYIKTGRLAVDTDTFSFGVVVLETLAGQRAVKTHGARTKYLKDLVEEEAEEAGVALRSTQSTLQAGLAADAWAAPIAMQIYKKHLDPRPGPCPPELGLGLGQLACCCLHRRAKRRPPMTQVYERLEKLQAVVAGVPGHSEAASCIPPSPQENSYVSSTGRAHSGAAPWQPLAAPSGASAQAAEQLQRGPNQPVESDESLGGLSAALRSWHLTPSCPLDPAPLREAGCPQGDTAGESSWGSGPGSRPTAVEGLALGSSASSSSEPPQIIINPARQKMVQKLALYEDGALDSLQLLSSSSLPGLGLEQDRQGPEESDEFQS
Briefly: DiscoverX KINOMEscan competition binding, IRAK1.
Description: as §1

Another assay addresses T3, FLT3 ITD (Homo sapiens, UniProt P36888).
T3 construct: fused on or other part: DNA tag for qPCR read-out (T7 phage fusion, or DNA-tagged kinase made in HEK-293 cells)
T3 sequence (P36888 1-993): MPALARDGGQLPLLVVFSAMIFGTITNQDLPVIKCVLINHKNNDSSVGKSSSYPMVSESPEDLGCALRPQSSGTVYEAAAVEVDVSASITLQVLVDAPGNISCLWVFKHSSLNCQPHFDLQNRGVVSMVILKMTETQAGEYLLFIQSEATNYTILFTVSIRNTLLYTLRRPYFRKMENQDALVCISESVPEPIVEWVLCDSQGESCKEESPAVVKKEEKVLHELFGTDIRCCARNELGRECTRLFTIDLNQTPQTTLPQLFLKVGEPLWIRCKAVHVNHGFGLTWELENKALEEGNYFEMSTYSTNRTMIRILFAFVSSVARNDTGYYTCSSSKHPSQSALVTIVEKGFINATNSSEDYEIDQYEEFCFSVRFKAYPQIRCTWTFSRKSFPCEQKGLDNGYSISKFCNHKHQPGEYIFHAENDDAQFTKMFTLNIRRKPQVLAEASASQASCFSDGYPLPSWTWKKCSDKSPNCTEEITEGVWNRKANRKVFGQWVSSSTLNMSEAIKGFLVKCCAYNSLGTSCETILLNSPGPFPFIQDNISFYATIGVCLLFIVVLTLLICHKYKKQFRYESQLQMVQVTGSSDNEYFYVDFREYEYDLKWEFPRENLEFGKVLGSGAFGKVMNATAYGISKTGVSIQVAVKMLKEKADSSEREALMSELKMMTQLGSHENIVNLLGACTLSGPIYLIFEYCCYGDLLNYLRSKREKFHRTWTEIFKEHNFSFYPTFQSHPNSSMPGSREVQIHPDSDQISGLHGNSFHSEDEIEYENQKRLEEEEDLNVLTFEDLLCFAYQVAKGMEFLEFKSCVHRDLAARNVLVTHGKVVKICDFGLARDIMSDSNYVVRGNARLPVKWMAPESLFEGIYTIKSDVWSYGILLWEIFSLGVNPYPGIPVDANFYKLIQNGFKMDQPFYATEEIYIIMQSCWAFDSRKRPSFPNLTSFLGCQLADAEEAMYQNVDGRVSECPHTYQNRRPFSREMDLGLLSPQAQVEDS
Briefly: DiscoverX KINOMEscan competition binding, FLT3 ITD.
Description: as §1

In general, Kd refers to the free concentration of one partner at which half of the binding sites on the other are occupied at equilibrium, for simple one-to-one binding. The low end stands for a tighter complex, the high end for a looser complex. Take `COc1cc2ncc(-c3nc(N[C@H]4CNCC[C@@H]4F)c(F)cc3F)n2nc1C1CCC1` [Compound 15a, 6-(6-cyclobutyl-7-methoxyimidazo[1,2-b]pyridazin-3-yl)-3,5-difluoro-N-((3S,4S)-4-fluoropiperidin-3-yl)pyridin-2-amine]: the values for the Kd at FLT3 K663Q, at IRAK1 and at FLT3 ITD were 0.62 nM, 1.4 nM and 0.43 nM, respectively.
